Article PMC3959874 (European journal of dermatology : EJD, 2013)

Columns and labels:
Imidazoline I2, Central = assay: Radioligand binding assay; parameters: species or system rat; conditions: 10 μM; 25 °C, 30 min
[1] = biological target: Transporter, Norepinephrine (NET) (Homo sapiens, UniProt P23975); assay: Radioligand binding assay; conditions: 10 μM; 4 °C, 180 min
Muscarinic M2 = Muscarinic M2 (Homo sapiens, UniProt P08172); assay: Radioligand binding assay; conditions: 10 μM; 25 °C, 120 min
Adrenergic β2 = Adrenergic β2 (Homo sapiens, UniProt P07550); assay: Radioligand binding assay; conditions: 10 μM; 25 °C, 60 min
Melatonin MT1 = Melatonin MT1 (Homo sapiens, UniProt P48039); assay: Radioligand binding assay; conditions: 10 μM; 25 °C, 180 min
Calcium Channel N-Type = Calcium Channel N-Type (Rattus norvegicus, UniProt Q02294); assay: Radioligand binding assay; conditions: 10 μM; 4 °C, 30 min
Calcium Channel N-Type, sequence (Q02294 whole entry): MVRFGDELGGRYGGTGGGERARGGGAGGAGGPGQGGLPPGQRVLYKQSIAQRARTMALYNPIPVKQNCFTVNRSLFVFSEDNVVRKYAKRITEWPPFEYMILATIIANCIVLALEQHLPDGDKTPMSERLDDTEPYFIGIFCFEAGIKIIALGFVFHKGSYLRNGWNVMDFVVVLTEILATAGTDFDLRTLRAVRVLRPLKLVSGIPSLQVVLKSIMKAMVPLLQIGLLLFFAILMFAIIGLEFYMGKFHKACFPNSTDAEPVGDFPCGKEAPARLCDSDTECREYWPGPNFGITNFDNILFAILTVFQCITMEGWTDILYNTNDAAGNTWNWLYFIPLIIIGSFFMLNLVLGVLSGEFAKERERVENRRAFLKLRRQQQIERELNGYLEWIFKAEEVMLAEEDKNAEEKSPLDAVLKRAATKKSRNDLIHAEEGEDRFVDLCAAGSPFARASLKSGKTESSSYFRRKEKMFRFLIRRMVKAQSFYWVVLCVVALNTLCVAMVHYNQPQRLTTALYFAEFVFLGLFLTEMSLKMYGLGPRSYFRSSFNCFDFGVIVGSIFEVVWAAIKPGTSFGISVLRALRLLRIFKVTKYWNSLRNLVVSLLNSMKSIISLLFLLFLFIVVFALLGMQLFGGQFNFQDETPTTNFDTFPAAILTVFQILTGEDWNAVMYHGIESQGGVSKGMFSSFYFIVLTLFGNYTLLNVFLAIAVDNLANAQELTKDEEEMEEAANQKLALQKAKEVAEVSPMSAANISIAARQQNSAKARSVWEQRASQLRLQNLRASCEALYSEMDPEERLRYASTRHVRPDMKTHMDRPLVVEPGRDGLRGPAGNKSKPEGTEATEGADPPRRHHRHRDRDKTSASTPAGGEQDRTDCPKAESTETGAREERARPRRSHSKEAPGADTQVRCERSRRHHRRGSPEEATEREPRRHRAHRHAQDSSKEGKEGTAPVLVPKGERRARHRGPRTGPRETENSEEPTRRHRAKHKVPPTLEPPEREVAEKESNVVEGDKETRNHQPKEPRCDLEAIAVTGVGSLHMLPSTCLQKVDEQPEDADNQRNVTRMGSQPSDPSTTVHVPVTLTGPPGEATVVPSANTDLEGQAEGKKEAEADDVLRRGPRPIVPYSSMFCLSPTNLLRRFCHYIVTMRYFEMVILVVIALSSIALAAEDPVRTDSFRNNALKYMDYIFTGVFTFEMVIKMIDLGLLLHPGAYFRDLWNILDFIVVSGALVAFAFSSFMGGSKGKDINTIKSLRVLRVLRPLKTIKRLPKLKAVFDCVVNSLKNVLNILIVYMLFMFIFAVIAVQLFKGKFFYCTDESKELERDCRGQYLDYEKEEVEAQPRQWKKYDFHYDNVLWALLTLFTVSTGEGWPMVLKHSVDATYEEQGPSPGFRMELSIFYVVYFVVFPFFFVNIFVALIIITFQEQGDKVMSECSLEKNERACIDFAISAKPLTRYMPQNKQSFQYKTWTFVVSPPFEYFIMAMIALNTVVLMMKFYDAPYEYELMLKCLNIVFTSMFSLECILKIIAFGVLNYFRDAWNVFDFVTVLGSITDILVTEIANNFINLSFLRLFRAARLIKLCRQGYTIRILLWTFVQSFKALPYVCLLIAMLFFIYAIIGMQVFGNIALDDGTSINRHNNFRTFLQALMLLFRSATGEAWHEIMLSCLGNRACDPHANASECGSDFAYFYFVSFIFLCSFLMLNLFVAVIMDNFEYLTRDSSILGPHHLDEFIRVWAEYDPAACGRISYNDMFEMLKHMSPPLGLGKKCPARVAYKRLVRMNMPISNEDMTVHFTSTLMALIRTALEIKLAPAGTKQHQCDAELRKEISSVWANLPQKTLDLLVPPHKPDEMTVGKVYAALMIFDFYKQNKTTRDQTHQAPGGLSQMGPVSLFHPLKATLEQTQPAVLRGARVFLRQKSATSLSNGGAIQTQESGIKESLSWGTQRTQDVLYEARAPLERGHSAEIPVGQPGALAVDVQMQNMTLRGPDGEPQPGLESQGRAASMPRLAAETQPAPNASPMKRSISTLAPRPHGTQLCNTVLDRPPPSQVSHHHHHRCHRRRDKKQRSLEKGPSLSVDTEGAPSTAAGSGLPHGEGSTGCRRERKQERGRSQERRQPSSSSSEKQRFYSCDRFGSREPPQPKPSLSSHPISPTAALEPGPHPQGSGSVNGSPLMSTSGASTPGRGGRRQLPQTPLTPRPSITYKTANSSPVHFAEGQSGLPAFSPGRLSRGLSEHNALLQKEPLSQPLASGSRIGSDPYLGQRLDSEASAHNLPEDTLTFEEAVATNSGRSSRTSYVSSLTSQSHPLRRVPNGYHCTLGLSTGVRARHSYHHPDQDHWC
Calcium Channel N-Type, sequence (P54290 25-944 partner limits assumed): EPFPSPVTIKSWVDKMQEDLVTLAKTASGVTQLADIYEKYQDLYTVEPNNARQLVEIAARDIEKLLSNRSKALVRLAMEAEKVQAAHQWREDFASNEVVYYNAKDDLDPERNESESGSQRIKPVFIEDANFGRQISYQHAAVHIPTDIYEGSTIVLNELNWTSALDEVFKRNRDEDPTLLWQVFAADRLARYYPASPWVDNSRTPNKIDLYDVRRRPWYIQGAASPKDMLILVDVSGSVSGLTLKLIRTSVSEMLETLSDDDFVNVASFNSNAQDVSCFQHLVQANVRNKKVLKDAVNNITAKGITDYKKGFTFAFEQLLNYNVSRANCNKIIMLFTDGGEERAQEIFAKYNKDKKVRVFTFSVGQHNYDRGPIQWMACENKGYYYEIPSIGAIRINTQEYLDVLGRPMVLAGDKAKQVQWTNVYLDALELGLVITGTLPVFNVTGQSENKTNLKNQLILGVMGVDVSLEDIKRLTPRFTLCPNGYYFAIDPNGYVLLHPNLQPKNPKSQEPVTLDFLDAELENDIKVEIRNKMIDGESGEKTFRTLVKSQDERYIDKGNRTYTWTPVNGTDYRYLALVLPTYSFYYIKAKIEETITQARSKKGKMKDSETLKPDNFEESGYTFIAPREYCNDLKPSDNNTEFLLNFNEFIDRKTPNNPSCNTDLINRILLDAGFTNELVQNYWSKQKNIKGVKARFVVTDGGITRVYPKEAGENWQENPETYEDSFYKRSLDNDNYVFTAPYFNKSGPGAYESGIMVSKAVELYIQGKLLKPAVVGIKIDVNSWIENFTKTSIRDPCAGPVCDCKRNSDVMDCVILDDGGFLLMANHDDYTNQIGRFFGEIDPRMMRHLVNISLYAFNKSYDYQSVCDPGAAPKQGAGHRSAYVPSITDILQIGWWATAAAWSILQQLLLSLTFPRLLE
Calcium Channel N-Type, sequence (P54290 945-1091 partner limits assumed): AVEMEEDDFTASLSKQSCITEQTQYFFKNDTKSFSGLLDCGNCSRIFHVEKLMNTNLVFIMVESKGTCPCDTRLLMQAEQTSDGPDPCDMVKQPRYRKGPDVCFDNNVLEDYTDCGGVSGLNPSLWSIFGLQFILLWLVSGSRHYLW
Calcium Channel N-Type, sequence (P54287 whole entry partner): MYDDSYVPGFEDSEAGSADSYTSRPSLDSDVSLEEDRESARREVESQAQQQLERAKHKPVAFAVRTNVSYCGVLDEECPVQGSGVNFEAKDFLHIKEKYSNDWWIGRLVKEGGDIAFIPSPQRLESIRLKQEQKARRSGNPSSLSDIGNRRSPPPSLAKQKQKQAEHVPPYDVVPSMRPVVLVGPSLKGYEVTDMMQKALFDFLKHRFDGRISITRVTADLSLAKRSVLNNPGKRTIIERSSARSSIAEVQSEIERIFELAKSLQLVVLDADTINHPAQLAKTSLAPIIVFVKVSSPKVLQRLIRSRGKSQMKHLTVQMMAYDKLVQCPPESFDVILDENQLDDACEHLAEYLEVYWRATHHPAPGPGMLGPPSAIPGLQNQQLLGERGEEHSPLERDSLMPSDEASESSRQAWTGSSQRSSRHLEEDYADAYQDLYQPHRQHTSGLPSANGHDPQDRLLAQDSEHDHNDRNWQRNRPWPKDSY

[2] = biological target: Platelet Activating Factor (PA F) (Homo sapiens, UniProt P25105); assay: Radioligand binding assay; conditions: 10 μM; 25 °C, 180 min
Adrenergic a2A = Adrenergic a2A (Homo sapiens, UniProt P08913); assay: Radioligand binding assay; conditions: 10 μM; 25 °C, 60 min
Cannabinoid CB1 = Cannabinoid CB1 (Homo sapiens, UniProt P21554); assay: Radioligand binding assay; conditions: 10 μM; 37 °C, 90 min
[3] = biological target: Epidermal Growth Factor (EG F) (Homo sapiens, UniProt P00533); assay: Radioligand binding assay; conditions: 10 μM; 25 °C, 60 min
CYP450, 2D6 = CYP450, 2D6 (Homo sapiens, UniProt P10635); assay: Cytochrome P450 enzyme assay; assay type: in vitro ADME; conditions: 10 μM; 37 °C, 45 min
[4] = tested on: Calcium Channel L-Type, Dihydropyridine; assay: Radioligand binding assay; parameters: species or system rat; conditions: 10 μM; 25 °C, 90 min
Purinergic P2, = assay: Radioligand binding assay; parameters: species or system rat; conditions: 10 μM; 25 °C, 60 min
Potassium Channel hERG = Potassium Channel hERG (Homo sapiens, UniProt Q12809); assay: Radioligand binding assay; conditions: 10 μM; 25 °C, 60 min
Adrenergic β1 = Adrenergic β1 (Homo sapiens, UniProt P08588); assay: Radioligand binding assay; conditions: 10 μM; 25 °C, 120 min
Adenosine A2A = Adenosine A2A (Homo sapiens, UniProt P29274); assay: Radioligand binding assay; conditions: 10 μM; 25 °C, 90 min
human PBMC = assay: IFN-γ secretion by stimulated PBMC; assay type: cell-based
[5] = Serum drug concentration after topical skin application; conditions: mice, TMX-202 from TMX-202 gel, IMQ from Aldara
Adenosine A1 = Adenosine A1 (Homo sapiens, UniProt P30542); assay: Radioligand binding assay; conditions: 10 μM; 25 °C, 90 min
Adenosine A1, sequence (P30542 whole entry): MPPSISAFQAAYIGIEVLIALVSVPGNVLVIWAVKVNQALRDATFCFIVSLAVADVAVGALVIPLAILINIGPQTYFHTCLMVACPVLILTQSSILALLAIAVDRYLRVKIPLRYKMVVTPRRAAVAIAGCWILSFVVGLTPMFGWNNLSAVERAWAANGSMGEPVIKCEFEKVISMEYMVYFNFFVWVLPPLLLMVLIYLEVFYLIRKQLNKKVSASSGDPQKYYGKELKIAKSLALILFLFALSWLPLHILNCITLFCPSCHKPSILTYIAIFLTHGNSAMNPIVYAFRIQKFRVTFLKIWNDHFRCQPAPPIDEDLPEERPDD

TLR7 = assay: In vitro TLR7-dependent cytokine induction, overall potency comparison; assay type: cell-based
Muscarinic M3 = Muscarinic M3 (Homo sapiens, UniProt P20309); assay type: binding; conditions: 10 μM; 25 °C, 120 min
Neuropeptide Y Y2 = Neuropeptide Y Y2 (Homo sapiens, UniProt P49146); assay: Radioligand binding assay; conditions: 10 μM; 37 °C, 120 min
Nicotinic Acetylcholine = assay: Radioligand binding assay; parameters: species or system human; conditions: 10 μM; 25 °C, 60 min
[6] = biological target: Serotonin (5-Hydroxytryptam ine) 5-HT3 (Homo sapiens, UniProt P46098); assay: Radioligand binding assay; conditions: 10 μM; 37 °C, 60 min
Serotonin (5-Hydroxytryptam ine) 5-HT3, sequence (P46098 24-478): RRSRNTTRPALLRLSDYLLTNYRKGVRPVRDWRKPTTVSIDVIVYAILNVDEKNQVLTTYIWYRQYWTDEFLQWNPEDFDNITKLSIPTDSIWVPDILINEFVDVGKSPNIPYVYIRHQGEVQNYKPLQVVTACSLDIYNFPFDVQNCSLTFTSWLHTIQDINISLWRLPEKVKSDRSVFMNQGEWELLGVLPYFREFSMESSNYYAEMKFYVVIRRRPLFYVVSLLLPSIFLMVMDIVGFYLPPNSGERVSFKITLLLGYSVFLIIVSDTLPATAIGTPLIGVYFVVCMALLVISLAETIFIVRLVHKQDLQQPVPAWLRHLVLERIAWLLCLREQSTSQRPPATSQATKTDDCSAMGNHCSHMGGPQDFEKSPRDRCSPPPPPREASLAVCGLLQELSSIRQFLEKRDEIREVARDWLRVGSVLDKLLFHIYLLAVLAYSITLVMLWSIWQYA

Dopamine D24 = Dopamine D24 (Homo sapiens, UniProt P14416); assay: Radioligand binding assay; conditions: 10 μM; 37 °C, 120 min
Glucocorticoid = Glucocorticoid (Homo sapiens, UniProt P04150); assay: Radioligand binding assay; conditions: 10 μM; 25 °C, 120 min
[7] = biological target: Nicotinic Acetylcholine a1, Bungarotoxin (Homo sapiens, UniProt P02708+P07510+Q07001); assay: Radioligand binding assay; conditions: 10 μM; 25 °C, 120 min
[8] = biological target: Serotonin (5-Hydroxytryptam ine) 5-HT2B (Homo sapiens, UniProt P41595); assay: Radioligand binding assay; conditions: 10 μM; 37 °C, 60 min
CYP450, 3A4 = CYP450, 3A4 (Homo sapiens, UniProt P08684); assay: Cytochrome P450 enzyme assay; assay type: in vitro ADME; conditions: 10 μM; 37 °C, 30 min
Dopamine D3 = Dopamine D3 (Homo sapiens, UniProt P35462); assay: Radioligand binding assay; conditions: 10 μM; 37 °C, 120 min
Dopamine D3, sequence (P35462 whole entry): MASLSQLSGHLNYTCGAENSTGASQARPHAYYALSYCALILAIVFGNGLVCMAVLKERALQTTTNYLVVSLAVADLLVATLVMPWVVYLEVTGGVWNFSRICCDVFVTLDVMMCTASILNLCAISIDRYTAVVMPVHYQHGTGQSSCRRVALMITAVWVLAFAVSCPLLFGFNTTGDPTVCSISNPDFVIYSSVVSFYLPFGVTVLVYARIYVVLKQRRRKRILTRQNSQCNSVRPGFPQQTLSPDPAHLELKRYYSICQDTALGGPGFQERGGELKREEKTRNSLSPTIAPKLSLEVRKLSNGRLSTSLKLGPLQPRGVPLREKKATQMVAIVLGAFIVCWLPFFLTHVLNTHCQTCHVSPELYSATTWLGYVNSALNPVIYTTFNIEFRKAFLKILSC

Compound: CCCCCCCCCCCC(=O)OC[C@@H](COP(=O)(O)OCCNC(=O)c1ccc(Cn2c(=O)[nH]c3c(N)nc(OCCOC)nc32)cc1)OC(=O)CCCCCCCCCCC [TMX-202]
- Percent inhibition of specific radioligand binding (Imidazoline I2, Central): −3%
- Percent inhibition of specific radioligand binding [1]: 57%
- Percent inhibition of specific radioligand binding (Muscarinic M2): 0%
- Percent inhibition of specific radioligand binding (Adrenergic β2): 3%
- Percent inhibition of specific radioligand binding (Melatonin MT1): 3%
- Percent inhibition of specific radioligand binding (Calcium Channel N-Type): −12%
- Percent inhibition of specific radioligand binding [2]: 33%
- Percent inhibition of specific radioligand binding (Adrenergic a2A): 3%
- Percent inhibition of specific radioligand binding (Cannabinoid CB1): −14%
- Percent inhibition of specific radioligand binding [3]: 6%
- Percent inhibition of enzyme activity (CYP450, 2D6): 0%
- Percent inhibition of specific radioligand binding [4]: 10%
- Percent inhibition of specific radioligand binding (Purinergic P2,): 8%
- Percent inhibition of specific radioligand binding (Potassium Channel hERG): −4%
- Percent inhibition of specific radioligand binding (Adrenergic β1): 18%
- Percent inhibition of specific radioligand binding (Adenosine A2A): −8%
- IFN-γ secretion compared with vehicle treated controls (human PBMC; PBMC from five independent donors (figure 6C)): significantly higher than vehicle treated controls
- Average IFN-γ levels in the TMX-202+CM (human PBMC; human PBMC 10^6/mL, 1 μM TMX-202, 24 hrs, three donors): 204 ± 113 pg/mL
- Serum level of the compound one hour after the application [5]: 2.6 ± 0.6 pg/mL
- Percent inhibition of specific radioligand binding (Adenosine A1): 10%
- Potency relative to IMQ in causing TLR7-dependent cytokine induction (TLR7): 100 times
- Percent inhibition of specific radioligand binding (Muscarinic M3): −6%
- Percent inhibition of specific radioligand binding (Neuropeptide Y Y2): 4%
- Percent inhibition of specific radioligand binding (Nicotinic Acetylcholine): 9%
- Percent inhibition of specific radioligand binding [6]: 3%
- Percent inhibition of specific radioligand binding (Dopamine D24): 25%
- Percent inhibition of specific radioligand binding (Glucocorticoid): −1%
- Percent inhibition of specific radioligand binding [7]: −3%
- Percent inhibition of specific radioligand binding [8]: 1%
- Percent inhibition of enzyme activity (CYP450, 3A4): −1%
- Percent inhibition of specific radioligand binding (Dopamine D3): 15%
